Experimental data published in BindingDB's records for doi:10.1021/jm050532w (Glaxosmithkline, 2005).

What was measured:
[1] = biological target: T1, Oxysterols receptor LXR-alpha (Homo sapiens, UniProt Q13133); test: Cell-Free Ligand Sensing Assay (LiSA)-LXRalpha-SRC1 Assay; conditions: pH 7.5; 22 °C
T1 sequence (Q13133 whole entry): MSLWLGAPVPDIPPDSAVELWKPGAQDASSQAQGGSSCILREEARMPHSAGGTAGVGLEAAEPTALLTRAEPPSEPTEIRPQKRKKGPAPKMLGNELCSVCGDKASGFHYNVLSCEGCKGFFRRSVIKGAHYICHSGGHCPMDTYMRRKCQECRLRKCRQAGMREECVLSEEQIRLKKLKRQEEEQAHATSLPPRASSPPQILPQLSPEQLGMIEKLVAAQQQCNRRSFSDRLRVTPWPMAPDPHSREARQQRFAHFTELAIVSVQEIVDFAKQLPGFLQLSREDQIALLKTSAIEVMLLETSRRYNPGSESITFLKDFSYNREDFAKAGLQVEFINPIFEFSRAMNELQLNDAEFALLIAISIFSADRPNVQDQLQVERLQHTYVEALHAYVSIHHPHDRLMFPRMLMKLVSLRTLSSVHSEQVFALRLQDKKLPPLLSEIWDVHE
Experimental: (§1) The LXR LiSA measures the ligand-dependent recruitment of a 25 amino acid fragment of the steroid receptor coactivator 1 (SRC1) to the ligand-binding domain of the receptor. The biotinylated protein was incubated with streptavidin-AlloPhycoCyanin, biotinylated SRC-1 peptide, and streptavidin-labeled europium. The fluorescence resonance energy transfer was then counted on a Wallac Victor fluorescent plate reader in a time-resolved mode.

[2] = biological target: T2, Oxysterols receptor LXR-beta (Homo sapiens, UniProt P55055); test: Cell-Free Ligand Sensing Assay (LiSA)-LXRbeta-SRC1 Assay; conditions: pH 7.5; 22 °C
T2 sequence (P55055 whole entry): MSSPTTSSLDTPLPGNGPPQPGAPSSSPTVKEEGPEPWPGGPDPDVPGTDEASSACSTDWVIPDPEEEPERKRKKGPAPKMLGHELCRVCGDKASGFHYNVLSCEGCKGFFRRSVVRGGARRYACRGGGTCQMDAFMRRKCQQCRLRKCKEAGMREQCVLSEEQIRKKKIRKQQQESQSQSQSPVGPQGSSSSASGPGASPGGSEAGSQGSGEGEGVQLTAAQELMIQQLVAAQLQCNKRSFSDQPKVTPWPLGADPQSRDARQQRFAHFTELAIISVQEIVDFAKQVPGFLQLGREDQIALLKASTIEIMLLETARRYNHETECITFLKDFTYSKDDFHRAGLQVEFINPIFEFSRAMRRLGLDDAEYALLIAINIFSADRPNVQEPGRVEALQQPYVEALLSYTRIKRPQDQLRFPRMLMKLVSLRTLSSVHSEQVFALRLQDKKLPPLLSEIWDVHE
Experimental: as §1

## COc1ccc(N=C2C(=O)N(c3ccccc3)C(=O)C2c2ccccc2)cc1 (configuration not stated) [3-[(4-methoxyphenyl)amino]-1,4-diphenyl-2,5-dihydro-1H-pyrrole-2,5-dione]
[1]
  EC50: 275 nM
[2]
  EC50: 260 nM
